Assay [1] concerns the target T1, rat ASIC1a (Rattus norvegicus, UniProt P55926).
T1 construct: expressed in transfected cells
T1 sequence (P55926 1-526): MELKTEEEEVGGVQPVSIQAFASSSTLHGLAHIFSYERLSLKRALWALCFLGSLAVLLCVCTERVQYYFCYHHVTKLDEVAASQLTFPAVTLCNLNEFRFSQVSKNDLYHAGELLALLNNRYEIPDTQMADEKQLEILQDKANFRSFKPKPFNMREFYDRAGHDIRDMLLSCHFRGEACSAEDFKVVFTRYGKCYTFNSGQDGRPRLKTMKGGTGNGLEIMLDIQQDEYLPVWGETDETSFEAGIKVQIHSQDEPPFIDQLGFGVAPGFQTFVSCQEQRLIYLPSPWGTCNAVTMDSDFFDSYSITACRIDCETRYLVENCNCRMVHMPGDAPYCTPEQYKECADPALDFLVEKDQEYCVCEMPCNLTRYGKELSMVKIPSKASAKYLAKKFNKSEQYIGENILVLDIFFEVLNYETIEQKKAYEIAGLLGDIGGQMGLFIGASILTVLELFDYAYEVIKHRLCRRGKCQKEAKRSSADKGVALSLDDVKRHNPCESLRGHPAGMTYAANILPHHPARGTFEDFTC
Briefly: Whole-cell patch clamp: inhibition of acid-induced current in CHO cells stably expressing rat ASIC1a. The assay is classed as cell-based. The following applies: 30 µM. The method, then:
(§1) Chinese Hamster Ovary (CHO) cells stably expressing rat ASIC1a were cultured in Ham’s F12, supplemented with 10% FBS, 1% penicillin–streptomycin and 500 µg/mL G418 and incubated at 37 °C with 5% CO2. Transient transfections of rASIC1a and cASIC1 wild-type or mutant channels in CHO cells were performed with Lipofectamine 3000 (Thermo Fisher Scientific) according to the manufacturer’s recommendations. The green fluorescent protein (GFP) cDNA (at 1/10 the amount of channel cDNA) was co-transfected with channel cDNA to aid the identification of transfected cells under the microscope in patch clamp experiments. All cDNAs were sequence verified.
(§2) Cells were freshly dissociated with CellStripper (Corning) and dispersed in a chamber on the stage of an inverted microscope. Upon formation of the whole-cell conformation, the cell was lifted from the bottom of the chamber and placed at the tip of a tubing perfusing an extracellular solution containing (in mM): 149 NaCl, 2 CaCl2, 4 KCl, 1 MgCl2, 5 glucose, 10 HEPES, pH 7.4, 310 mOsm/L. Extracellular solutions at more basic or acidic pHs were made by titrating the above pH 7.4 solution with NaOH or HCl (5 mM MES was added to solutions at pH 6.0 and lower). Pipette electrodes were filled with an intracellular solution containing (in mM): 135 KCl, 4 MgATP, 0.3 Na2GTP, 10 EGTA, and 20 HEPES, pH 7.2, 290 mOsm/L.
(§3) All recordings were performed at room temperature using an Axopatch 200B amplifier and pClamp 11 software (Molecular Devices). Currents were measured by whole-cell patch clamp, digitized at 10 kHz and lowpass filtered at 2 kHz. Series resistance was 75% compensated. Responses were elicited by rapid perfusion of acidic solutions using the SF-77B Fast-Step Perfusion device (Warner Instruments) for 40 ms once every 30 s (unless indicated otherwise) and recorded till steady state was reached. The holding potential was 0 mV unless indicated otherwise.
(§4) Baseline values (i.e., current amplitudes at the conditioning pH) were subtracted to obtain responses evoked by the test pH. Responses were normalized for each cell before averaging (see figure legends for more detail on normalization for each type of experiment). Concentration–response data were fitted to a logistic function of the form: R = (A1–A2)/(1 + (C/C0)^h)+A2, where R is the normalized response, C is either pH or compound concentration, C0 is the pH/concentration at which half-maximal response occurs (pH50 or IC50), h is the Hill coefficient, and A1 and A2 are constants. Kinetic parameters were obtained by fitting the data with either a single or double exponential function. Fitted data are shown as solid, dashed, or dotted curves.

The target of assay [2] is T1, rat ASIC1a. Briefly: pH dependence of steady-state desensitization (whole-cell patch clamp). The format is cell-based. The settings on record: 10 nM PcTx1. The method, then:
as §1, §2, §3, §4

As to `N=C(N)NC(=O)c1nc(Cl)c(N)nc1N` [amiloride, reference compound], the results for the “block of pH 6.0-induced current” value at rat ASIC1a [1] (0 mV) and on rat ASIC1a [1] (−80 mV) were 62.3 ± 0.7% and 86.8 ± 1.2%, respectively. For the molecule PcTx1 [reference compound], the “pH50 of steady-state desensitization” value with rat ASIC1a [2] came out at 7.81 ± 0.02.
